Experimental data published in patent US20050148627A1, “Benzopyran compounds for use in the treatment and prevention of inflammation related conditions” (priority 2003, published 2005).
Values joined by “and” are separate entries in the source; they are usually repeats but may differ in a detail not shown here. Equal entries are not always repeated.

Assays:
COX-1 = COX-1 (Homo sapiens, UniProt P23219); test: biochemical
Sequence of COX-1 (P23219 24-599): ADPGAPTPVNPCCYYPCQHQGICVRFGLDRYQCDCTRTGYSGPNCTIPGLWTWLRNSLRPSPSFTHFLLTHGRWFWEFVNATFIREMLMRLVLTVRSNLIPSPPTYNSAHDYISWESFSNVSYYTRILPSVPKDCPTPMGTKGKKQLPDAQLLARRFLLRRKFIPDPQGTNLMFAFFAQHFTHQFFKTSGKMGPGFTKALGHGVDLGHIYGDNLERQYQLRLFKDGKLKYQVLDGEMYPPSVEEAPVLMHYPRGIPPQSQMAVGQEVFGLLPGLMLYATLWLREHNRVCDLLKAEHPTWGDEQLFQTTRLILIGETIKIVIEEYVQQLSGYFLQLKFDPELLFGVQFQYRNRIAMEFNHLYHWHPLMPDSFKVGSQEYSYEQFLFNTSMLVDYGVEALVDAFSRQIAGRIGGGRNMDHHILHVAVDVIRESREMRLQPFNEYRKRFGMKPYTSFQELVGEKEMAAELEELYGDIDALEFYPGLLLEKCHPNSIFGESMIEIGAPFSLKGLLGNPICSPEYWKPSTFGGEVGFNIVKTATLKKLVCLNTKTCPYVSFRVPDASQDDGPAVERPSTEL

Structure (SMILES) | melting point | IC50 (COX-1)
Nc1c(Cl)ccc2c1C=C(C(=O)O)C(C(F)(F)F)O2 (stereo not drawn) [Example 876, 5-Amino-6-chloro-2-(trifluoromethyl)-2H-chromene-3-carboxylic acid] | 208.5 to 210 °C | 
Cc1ccc(-c2c(Cl)ccc3c2C=C(C(=O)O)C(C(F)(F)F)O3)cc1 (stereo not drawn) [Example 869, 6-Chloro-5-(4-methylphenyl)-2-(trifluoromethyl)-2H-chromene-3-carboxylic acid] | 218 to 220 °C | 
O=C(O)C1=Cc2c(ccc(Cl)c2-c2ccccc2)OC1C(F)(F)F (stereo not drawn) [Example 872, 6-Chloro-5-phenyl-2-(trifluoromethyl)-2H-chromene-3-carboxylic acid] | 229 to 231 °C | 
CCc1c(Cl)ccc2c1C=C(C(=O)O)C(C(F)(F)F)O2 (stereo not drawn) [Example 873, 6-Chloro-5-ethyl-2-(trifluoromethyl)-2H-chromene-3-carboxylic acid] | 171.5 to 172.5 °C | 
O=C(O)C1=Cc2cc3occ(-c4ccc(Br)cc4)c3cc2OC1C(F)(F)F (stereo not drawn) [Example 921, 3-(4-bromophenyl)-6-(trifluoromethyl)-6H-furo[2,3-g]chromene-7-carboxylic acid] | > 250 °C | 
Cc1cccc(-c2c(Cl)ccc3c2C=C(C(=O)O)C(C(F)(F)F)O3)c1 (stereo not drawn) [Example 870, 6-Chloro-5-(3-methylphenyl)-2-(trifluoromethyl)-2H-chromene-3-carboxylic acid] | 222.5 to 224 °C | 
CCc1ccc(Oc2cc3c(cc2Cl)C=C(C(=O)O)[C@@H](C(F)(F)F)O3)cc1 (single isomer, unassigned) [Example 939] | 90 to 95 °C | 
O=C(O)C1=Cc2c(ccc3occ(-c4ccc(Br)cc4)c23)OC1C(F)(F)F (stereo not drawn) [Example 922, 1-Para-bromophenyl-7-(trifluoromethyl)-7H-furo[3,2-f]chromene-8-carboxylic acid] | > 250 °C | 
O=C(O)C1=Cc2c(ccc(Cl)c2-c2ccsc2)OC1C(F)(F)F (stereo not drawn) [Example 868, 6-Chloro-5-thien-3-yl-2-(trifluoromethyl)-2H-chromene-3-carboxylic acid] | 211 to 213.5 °C | 
CC(C)c1cccc(-c2c(Cl)ccc3c2C=C(C(=O)O)C(C(F)(F)F)O3)c1 (stereo not drawn) [Example 871, 6-Chloro-5-(3-isopropylphenyl)-2-(trifluoromethyl)-2H-chromene-3-carboxylic acid] | 184 to 186.5 °C | 
CCc1cnc(Oc2cc3c(cc2Cl)C=C(C(=O)O)C(C(F)(F)F)O3)nc1 (stereo not drawn) [Example 864, 6-Chloro-7-[(5-ethylpyrimidin-2-yl)oxy]-2-(trifluoromethyl)-2H-chromene-3-carboxylic acid] | 96.5 to 98 °C | 
CCc1ccc(Oc2cc3c(cc2Cl)C=C(C(=O)O)[C@H](C(F)(F)F)O3)cc1 (single isomer, unassigned) [Example 931] | 130 to 131 °C | 
COc1c(Cl)cc2c(c1C)OC(C(F)(F)F)C(C(=O)O)=C2 (stereo not drawn) [Example 3a, 6-chloro-7-methoxy-8-methyl-2-(trifluoromethyl)-2H-chromene-3-carboxylic acid] |  | > 100 µM
COc1cccc(Cc2ccc3c(c2)OC(C(F)(F)F)C(C(=O)O)=C3)c1 (stereo not drawn) [Example 9w, 7-(3-methoxybenzyl)-2-(trifluoromethyl)-2H-chromene-3-carboxylic acid] |  | > 100 µM
CCCSc1cc2c(cc1Cl)C=C(C(=O)O)C(C(F)(F)F)O2 (stereo not drawn) [Example 7c, 6-chloro-7-(propylthio)-2-(trifluoromethyl)-2H-chromene-3-carboxylic acid] |  | > 100 µM
O=C(O)C1=Cc2cc(Cl)c(OCc3ccccc3)cc2OC1C(F)(F)F (stereo not drawn) [Example 2f, 7-(benzyloxy)-6-chloro-2-(trifluoromethyl)-2H-chromene-3-carboxylic acid] |  | > 100 µM

Structure (SMILES) | melting point | IC50 (COX-1)
Nc1ccc(Oc2cc3c(cc2Cl)C=C(C(=O)O)C(C(F)(F)F)O3)c(F)c1 (stereo not drawn) [Example 2a, 7-(4-amino-2-fluorophenoxy)-6-chloro-2-(trifluoromethyl)-2H-chromene-3-carboxylic acid] |  | < 0.137 µM and 0.347 µM and 0.112 µM
COc1ccc2c(c1OC)OC(C(F)(F)F)C(C(=O)O)=C2 (stereo not drawn) [Example 4a, 7,8-dimethoxy-2-(trifluoromethyl)-2H-chromene-3-carboxylic acid] |  | > 500 µM
COc1ccc2c(c1C)OC(C(F)(F)F)C(C(=O)O)=C2 (stereo not drawn) [Example 5c, 7-methoxy-8-methyl-2-(trifluoromethyl)-2H-chromene-3-carboxylic acid] |  | > 100 µM and 478 µM
COc1ccc(Cc2cc3c(cc2Cl)C=C(C(=O)O)C(C(F)(F)F)O3)cc1 (stereo not drawn) [Example 9q, 6-chloro-7-(4-methoxybenzyl)-2-(trifluoromethyl)-2H-chromene-3-carboxylic acid] |  | 99.9 µM
C=C(C)c1cc2c(cc1Cl)C=C(C(=O)O)C(C(F)(F)F)O2 (stereo not drawn) [Example 113, 6-chloro-7-isopropenyl-2-(trifluoromethyl)-2H-chromene-3-carboxylic acid] |  | > 100 µM
Cc1c(C)c2c(c(C)c1Cl)C=C(C(=O)O)C(C(F)(F)F)O2 (stereo not drawn) [Example 104] |  | 6.75 µM and 12.1 µM
Cc1c(Cc2ccccc2)c(Cl)cc2c1OC(C(F)(F)F)C(C(=O)O)=C2 (stereo not drawn) [Example 14a, 7-benzyl-6-chloro-8-methyl-2-(trifluoromethyl)-2H-chromene-3-carboxylic acid] |  | < 0.137 µM
Cc1cc(Cl)ccc1Cc1cc2c(cc1Cl)C=C(C(=O)O)C(C(F)(F)F)O2 (stereo not drawn) [Example 9p, 6-chloro-7-(4-chloro-2-methylbenzyl)-2-(trifluoromethyl)-2H-chromene-3-carboxylic acid] |  | 1.51 µM
Cc1ccc(Cc2cc3c(cc2Cl)C=C(C(=O)O)C(C(F)(F)F)O3)cc1Cl (stereo not drawn) [Example 9y, 6-chloro-7-(3-chloro-4-methylbenzyl)-2-(trifluoromethyl)-2H-chromene-3-carboxylic acid] |  | 4.69 µM
CC(C)(C)Oc1cc2c(cc1Cl)C=C(C(=O)O)C(C(F)(F)F)O2 (stereo not drawn) [Example 2g, 7-tert-butoxy-6-chloro-2-(trifluoromethyl)-2H-chromene-3-carboxylic acid] |  | > 500 µM
CC1CCN(c2cc3c(cc2Cl)C=C(C(=O)O)C(C(F)(F)F)O3)CC1 (stereo not drawn) [Example 8d, 6-chloro-7-(4-methylpiperidin-1-yl)-2-(trifluoromethyl)-2H-chromene-3-carboxylic acid] |  | > 100 µM
COc1cc2c(cc1Cl)C=C(C(=O)O)C(C(F)(F)F)O2 (stereo not drawn) [Example 2i, 6-chloro-7-methoxy-2-(trifluoromethyl)-2H-chromene-3-carboxylic acid] |  | > 100 µM and 187 µM
O=C(O)C1=Cc2c(cc3c(c2Cl)OCO3)OC1C(F)(F)F (stereo not drawn) [Example 119, 9-chloro-6-(trifluoromethyl)-6H-[1,3]dioxolo[4,5-g]chromene-7-carboxylic acid] |  | > 500 µM
COc1cc2c(c(Cl)c1Cl)OC(C(F)(F)F)C(C(=O)O)=C2 (stereo not drawn) [Example 19, 7,8-dichloro-6-methoxy-2-(trifluoromethyl)-2H-chromene-3-carboxylic acid] |  | 82.1 µM and 34.7 µM
CC(C)c1cc2c(cc1Cl)C=C(C(=O)O)C(C(F)(F)F)O2 (stereo not drawn) [Example 9f, 6-chloro-7-isopropyl-2-(trifluoromethyl)-2H-chromene-3-carboxylic acid] |  | 147 µM and > 100 µM
CC(C)(C=O)c1ccc2c(c1)OC(C(F)(F)F)C(C(=O)O)=C2 (stereo not drawn) [Example 114, 7-(1,1-dimethyl-2-oxoethyl)-2-(trifluoromethyl)-2H-chromene-3-carboxylic acid] |  | 63.9 µM

Further lines, results first:

melting point | IC50 (COX-1) | Structure (SMILES)
156 to 158 °C (dec.) |  | CC(F)(F)c1ccc2c(c1)C=C(C(=O)O)C(C(F)(F)F)O2 (stereo not drawn) [Example 34d, 6-(1,1-difluoroethyl)-2-(trifluoromethyl)-2H-chromene-3-carboxylic acid]
 | < 0.137 µM | CCCCCCOc1cc(Cl)c2c(c1)C=C(C(=O)O)C(C(F)(F)F)O2 (stereo not drawn) [Example 17e, 8-chloro-6-(hexyloxy)-2-(trifluoromethyl)-2H-chromene-3-carboxylic acid]
 | 0.5 µM and 0.392 µM | O=C(O)C1=Cc2cc(OC3CCCCC3)cc(Cl)c2OC1C(F)(F)F (stereo not drawn) [Example 17g, 8-chloro-6-(cyclohexyloxy)-2-(trifluoromethyl)-2H-chromene-3-carboxylic acid]
 | 0.471 µM and < 0.132 µM | COc1cc(Cl)c(Cl)c2c1OC(C(F)(F)F)C(C(=O)O)=C2 (stereo not drawn) [Example 23e, 5,6-dichloro-8-methoxy-2-(trifluoromethyl)-2H-chromene-3-carboxylic acid]
 | > 100 µM and 72.3 µM | O=C(O)C1=Cc2cccc(OCc3ccoc3)c2OC1C(F)(F)F (stereo not drawn) [Example 25h, 8-(3-furylmethoxy)-2-(trifluoromethyl)-2H-chromene-3-carboxylic acid]
 | > 100 µM and 80.7 µM | O=C(O)C1=Cc2cccc(OCc3ccccc3)c2OC1C(F)(F)F (stereo not drawn) [Example 25g, 8-(benzyloxy)-2-(trifluoromethyl)-2H-chromene-3-carboxylic acid]
 | 0.182 µM | CC#Cc1cc(OC(F)(F)F)cc2c1OC(C(F)(F)F)C(C(=O)O)=C2 (stereo not drawn) [Example 21d, 8-prop-1-ynyl-6-(trifluoromethoxy)-2-(trifluoromethyl)-2H-chromene-3-carboxylic acid]
 | > 100 µM | CCc1ccc2c(c1)C=C(C(=O)O)C(C(F)(F)F)O2 (stereo in doubt) [Example 34c, (2R)-6-ethyl-2-(trifluoromethyl)-2H-chromene-3-carboxylic acid]
 | < 0.137 µM | C=Cc1cc(OC(F)(F)F)cc2c1OC(C(F)(F)F)C(C(=O)O)=C2 (stereo not drawn) [Example 21n, 6-(trifluoromethoxy)-2-(trifluoromethyl)-8-vinyl-2H-chromene-3-carboxylic acid]
 | < 0.137 µM | COc1c(Cl)c(Cl)c2c(c1Cl)C=C(C(=O)O)C(C(F)(F)F)O2 (stereo not drawn) [Example 20a, 5,7,8-trichloro-6-methoxy-2-(trifluoromethyl)-2H-chromene-3-carboxylic acid]
 | > 500 µM | CCOc1ccc(Br)c2c1OC(C(F)(F)F)C(C(=O)O)=C2 (stereo not drawn) [Example 24b, 5-bromo-8-ethoxy-2-(trifluoromethyl)-2H-chromene-3-carboxylic acid]
 | < 0.137 µM and 0.0312 µM | C#Cc1cc(OC(F)(F)F)cc2c1OC(C(F)(F)F)C(C(=O)O)=C2 (stereo not drawn) [Example 21f, 8-ethynyl-6-(trifluoromethoxy)-2-(trifluoromethyl)-2H-chromene-3-carboxylic acid]
 | > 100 µM and 217 µM | CC(C)Cc1cc(OC(F)(F)F)cc2c1OC(C(F)(F)F)C(C(=O)O)=C2 (stereo not drawn) [Example 21h, 8-isobutyl-6-(trifluoromethoxy)-2-(trifluoromethyl)-2H-chromene-3-carboxylic acid]
